From patent US20060281763A1, “Carboxamide inhibitors of TGFbeta” (priority 2005, published 2006) come the findings set out here.

For one experiment, the target named is T1, TGFβ R1 (Homo sapiens, UniProt P36897).
T1 sequence (P36897 34-503): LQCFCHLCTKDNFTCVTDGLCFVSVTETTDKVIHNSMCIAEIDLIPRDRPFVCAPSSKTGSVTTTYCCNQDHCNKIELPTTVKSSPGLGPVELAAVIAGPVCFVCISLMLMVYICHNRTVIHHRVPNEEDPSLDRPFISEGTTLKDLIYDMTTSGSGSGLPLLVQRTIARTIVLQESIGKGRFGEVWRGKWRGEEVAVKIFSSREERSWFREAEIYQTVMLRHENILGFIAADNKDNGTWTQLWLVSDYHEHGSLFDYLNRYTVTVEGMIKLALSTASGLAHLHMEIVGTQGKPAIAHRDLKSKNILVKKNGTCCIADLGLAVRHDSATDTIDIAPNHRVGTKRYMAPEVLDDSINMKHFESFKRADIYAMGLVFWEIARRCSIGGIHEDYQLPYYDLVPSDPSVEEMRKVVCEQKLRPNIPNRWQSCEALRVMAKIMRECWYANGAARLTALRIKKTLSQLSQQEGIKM
Nature of the experiment: TGFβ R1 autophosphorylation protocol (33P-ATP, phosphocellulose filter plate). Format: biochemical. The following applies: 10 uM ATP, 170 nM TGFβ R1, 20 minutes at room temperature, read-out: IC50 for Kinase Inhibition. On the procedure:
The compounds of the invention were tested for their ability to inhibit TGFβ by a TGFβ R^1 autophosphorylation protocol. This was conducted as follows: Compound dilutions and reagents were prepared fresh daily. Compounds were diluted from DMSO stock solutions to 2 times the desired assay concentration, keeping final DMSO concentration in the assay less than or equal to 1%. TGFβ R1 was diluted to 4 times the desired assay concentration in buffer+DTT. ATP was diluted into 4× reaction buffer, and gamma-^33P-ATP was added at 60 uCi/mL.
The assay was performed by adding 10 ul of the enzyme to 20 ul of the compound solution. The reaction was initiated by the addition of 10 ul of ATP mix. Final assay conditions included 10 uM ATP, 170 nM TGFβ R1, and […] in 20 mM MOPS, pH7. The reactions were incubated at room temperature for 20 minutes. The reactions were stopped by transferring 23 ul of reaction mixture onto a phosphocellulose 96-well filter plate, which had been pre-wetted with 15 ul of 0.25M H3PO4 per well. After 5 minutes, the wells were washed 4× with 75 mM H3PO4 and once with 95% ethanol. The plate was dried, scintillation cocktail was added to each well, and the wells were counted in a Packard TopCount microplate scintillation counter.
Take `COc1cnc(-c2cc(Cl)ccc2F)nc1Nc1ccncc1C(=O)NCCCNCCC1O[C@H](COC(C)=O)[C@@H](OC(C)=O)[C@H](OC(C)=O)[C@H]1OC(C)=O` (some centres unmarked) [Compound 97, Acetic acid 3,4,5-triacetoxy-6-{2-[3-({4-[2-(5-chloro-2-fluoro-phenyl)-5-methoxy-pyrimidin-4-ylamino]-pyridine-3-carbonyl}-amino)-propylamino]-ethyl}-tetrahydro-pyran-2-ylmethyl ester]: the IC50 turned out to be 90 nM.

In the case of `CC(C)NCCNC(=O)c1cnccc1Nc1nc(-c2cc(Cl)ccc2F)ncc1N1CCCC1` [Compound 23, 4-[2-(5-Chloro-2-fluoro-phenyl)-5-pyrrolidin-1-yl-pyrimidin-4-ylamino]-N-(2-isopropylamino-ethyl)-nicotinamide], the 50% inhibitory concentration (IC50) came to 200 nM.

Take `CCNC(=O)NCCNC(=O)c1cnccc1Nc1nc(-c2cc(Cl)ccc2F)ncc1OC` [Compound 69, 4-[2-(5-Chloro-2-fluoro-phenyl)-5-methoxy-pyrimidin-4-ylamino]-N-[2-(3-ethyl-ureido)-ethyl]-nicotinamide]: the IC50 is 150 nM.

`COc1cnc(-c2cc(Cl)ccc2F)nc1Nc1ccncc1C(=O)NCC(F)(F)F` [Compound 37, 4-[2-(5-Chloro-2-fluoro-phenyl)-5-methoxy-pyrimidin-4-ylamino]-N-(2,2,2-trifluoro-ethyl)-nicotinamide]: the IC50 turned out to be 160 nM.

`CCNC(=O)NCCCNC(=O)c1cnccc1Nc1nc(-c2cc(Cl)ccc2F)ncc1OC` [Compound 75]: the IC50 amounted to 110 nM.

In the case of `COc1cnc(-c2cc(Cl)ccc2F)nc1Nc1ccncc1C(=O)NCCNc1ccccc1` [Compound 71, 4-[2-(5-Chloro-2-fluoro-phenyl)-5-methoxy-pyrimidin-4-ylamino]-N-(2-phenylamino-ethyl)-nicotinamide], the IC50 was 760 nM.

As for `COc1cnc(-c2cc(Cl)ccc2F)nc1Nc1ccncc1C(=O)NCCCNC(=O)CO[C@H]1O[C@H](CO)[C@H](O)[C@H](O)[C@H]1O` [Compound 140, 4-[2-(5-Chloro-2-fluoro-phenyl)-5-methoxy-pyrimidin-4-ylamino]-N-{3-[2-(3,4,5-trihydroxy-6-hydroxymethyl-tetrahydro-pyran-2-yloxy)-acetylamino]-propyl}-nicotinamide], the IC50 turned out to be 44 nM.

As to `O=C(NCCO)c1cnccc1Nc1nc(-c2cc(Cl)ccc2F)ncc1N1CCCC1` [Compound 24, 4-[2-(5-Chloro-2-fluoro-phenyl)-5-pyrrolidin-1-yl-pyrimidin-4-ylamino]-N-(2-hydroxy-ethyl)-nicotinamide], the concentration for half-maximal inhibition (IC50) was 490 nM.

As for `COC(=O)[C@H]1C[C@@H](NC(=O)c2cnccc2Nc2nc(-c3cc(Cl)ccc3F)ncc2OC)CN1C(=O)OC(C)(C)C` [Compound 88, 4-({4-[2-(5-Chloro-2-fluoro-phenyl)-5-methoxy-pyrimidin-4-ylamino]-pyridine-3-carbonyl}-amino)-pyrrolidine-1,2-dicarboxylic acid 1-tert-butyl ester 2-methyl ester], the IC50 is 14100 nM.

On to `COc1cnc(-c2cc(Cl)ccc2F)nc1Nc1ccncc1C(=O)N1CCN(CCO)CC1` [Compound 116, {4-[2-(5-Chloro-2-fluoro-phenyl)5-methoxy-pyrimidin-4-ylamino]pyridin-3-yl}-[4-(2-hydroxy-ethyl)-piperazin-1-yl]-methanone], for which the IC50 was 7370 nM.

As to `COc1cnc(-c2cc(Cl)ccc2F)nc1Nc1ccncc1C(=O)NCCCNC(C)C` [Compound 131, 4-[2-(5-Chloro-2-fluoro-phenyl)-5-methoxy-pyrimidin-4-ylamino]-N-(3-isoopropyl-amino-propyl)-nicotinamide], the half-maximal inhibitory concentration (IC50) worked out at 21 nM.

For `COc1cnc(-c2cc(Cl)ccc2F)nc1Nc1ccncc1C(=O)NC1CNC1` [Compound 87, N-Azetidin-3-yl-4-[2-(5-chloro-2-fluoro-phenyl)-5-methoxy-pyrimidin-4-ylamino]-nicotinamide], the IC50 worked out at 50 nM.

Consider `COc1cnc(-c2cc(Cl)ccc2F)nc1Nc1ccncc1C(=O)NC[C@H]1O[C@@H](O)[C@H](O)[C@@H](O)[C@@H]1O` [Compound 34, 4-[2-(5-Chloro-2-fluoro-phenyl)-5-methoxy-pyrimidin-4-ylamino)-N-(3,4,5,6-tetahydroxy-tetrahrydro-pyran-2-ylmethyl)-nicotinamide], for which the 50% inhibitory concentration (IC50) came to 1160 nM.

As to `COc1cnc(-c2cc(Cl)ccc2F)nc1Nc1ccncc1C(=O)NCC(O)CN1CCOCC1` (centres unmarked) [Compound 73, 4-[2-(5-Chloro-2-fluoro-phenyl)-5-methoxy-pyrimidin-4-ylamino]-N-(2-hydroxy-3-morpholin-4-yl-propyl)-nicotinamide], the half-maximal inhibitory concentration (IC50) was 360 nM.

Take `CC(C)c1cnc(-c2cc(Cl)ccc2F)nc1Nc1ccncc1C(=O)N[C@H](CO)[C@@H](C)O` [Compound 84, 4-[2-(5-Chloro-2-fluoro-phenyl)-5-isopropyl-pyrimidin-4-ylamino]-N-(2-hydroxy-1-hydroxymethyl-propyl)-nicotinamide]: the IC50 came out at 1730 nM.

For `COc1cnc(-c2cc(Cl)ccc2F)nc1Nc1ccncc1C(=O)N[C@@H]1C[C@H](C(=O)N(C)C)N(C(=O)OC(C)(C)C)C1` [Compound 106, 4-({4-[2-(5-Chloro-2-fluoro-phenyl)-5-methoxy-pyrimidin-4-ylamino]-pyridine-3-carbonyl}-amino)-2-dimethyl carbamoyl-pyrrolidine-1-carboxylic acid tert-butyl ester], the IC50 came out at 4810 nM.

Consider `COc1cnc(-c2cc(Cl)ccc2F)nc1Nc1ccncc1C(=O)NC1CCN(CCC2O[C@H](CO)[C@@H](O)[C@H](O)[C@H]2O)CC1` (some centres unmarked) [Compound 137, 4-[2-(5-Chloro-2-fluoro-phenyl)-5-methoxy-pyrimidin-4-ylamino]-N-{1-[2-(3,4,5-trihydroxy-6-hydroxymethyl-tetrahydro-pyran-2-yl)-ethyl]-piperidin-4-yl}-nicotinamide], for which the IC50 was 18 nM.

Staying with this experiment, now noted: 10 uM ATP, 170 nM TGFβ R1, room temperature 20 minutes, read-out: IC50 for Kinase Inhibition.
As to `CC(C)c1cnc(-c2cc(Cl)ccc2F)nc1Nc1ccncc1C(=O)NC(CO)CO` [Compound 193, 4-[2-(5-Chloro-2-fluoro-phenyl)-5-isopropyl-pyrimidin-4-ylamino]-N-(2-hydroxy-1-hydroxymethyl-ethyl)-nicotinamide], the IC50 is 27 nM.

`O=C(NCCCn1ccnc1)c1cnccc1Nc1nc(-c2cc(Cl)ccc2F)ncc1C1CCCC1` [Compound 219]: the half-maximal inhibitory concentration (IC50) was 44 nM.

On to `CC(=O)CNC(=O)c1cnccc1Nc1nc(-c2cc(Cl)ccc2F)ncc1C(C)C` [Compound 169, 4-[2-(5-Chloro-2-fluoro-phenyl)-5-isopropyl-pyrimidin-4-ylamino]-N-(2-oxo-propyl)-nicatinamide], for which the 50% inhibitory concentration (IC50) is 3 nM.

For the molecule `COCC(COC)NC(=O)c1cnccc1Nc1nc(-c2cc(Cl)ccc2F)ncc1C(C)C` [Compound 195, 4-[2-(5-Chloro-2-fluoro-phenyl)-5-isopropyl-pyrimidin-4-ylamino]-N-(2-methoxy-1-methoxymethyl-ethyl)-nicotinamide], the 50% inhibitory concentration (IC50) amounted to 424 nM.

On to `COc1cnc(-c2cc(Cl)ccc2F)nc1Nc1ccncc1C(=O)N1CC[C@@H](N)C1` [Compound 174, (3-Amino-pyrrolidin-1-yl)-{4-[2-(5-chloro-2-fluoro-phenyl)-5-methoxy-pyrimidin-4-ylamino]-pyridin-3-yl}-methanone], for which the half-inhibitory concentration (IC50) stood at 1160 nM.

Turning to `CC(C)c1cnc(-c2cc(Cl)ccc2F)nc1Nc1ccncc1C(=O)NCCCN1CCCC1` [Compound 161, 4-[2-(5-Chloro-2-fluoro-phenyl)-5-isopropyl-pyrimidin-4-ylamino]-N-(3-pyrrolidin-1-yl-propyl)-nicotinamide], the IC50 was 4 nM.

`COc1cnc(-c2cc(Cl)ccc2F)nc1Nc1ccncc1C(=O)NCCCNS(C)(=O)=O` [Compound 237, 4-[2-(5-Chloro-2-fluoro-phenyl)-5-methoxy-pyrimidin-4-ylamino]-N-(3-methanesulfonylamino-propyl)-nicotinamide]: the 50% inhibitory concentration (IC50) turned out to be 63 nM.

`COc1cnc(-c2cc(Cl)ccc2F)nc1Nc1ccncc1C(=O)N1CCC[C@@H](O)C1` [Compound 218, {4-[2-(5-Chloro-2-fluoro-phenyl)-5-methoxy-pyrimidin-4-ylamino]-pyridin-3-yl}-(3-hydroxy-piperidin-1-yl)-methanone]: the half-maximal inhibitory concentration (IC50) turned out to be 1780 nM.

Take `CC(C)c1cnc(-c2cc(Cl)ccc2F)nc1Nc1ccncc1C(=O)N1CCN[C@@H](C(C)C)C1` [Compound 231, {4-[2-(5-Chloro-2-fluoro-phenyl)-5-isopropyl-pyrimidin-4-ylamino]-pyridin-3-yl}-(3-isopropyl-piperazin-1-yl)-methanone]: the IC50 was determined as 1090 nM.
